Patent US20260374766A1, “METHODS FOR TREATING CANCER” (Antares Therapeutics, Inc., priority 2022, published 2026)
Where two headings read alike, the source gives them in different places.

Tests used:
[1] = target: T1, p53 Y220C mutant protein (amino acid residues 94-293) (Homo sapiens, UniProt P04637, Y220C); experiment: Thermal Shift Assay (TSA), dTM; format: binding; details: for ΔTm at 10 µM: 10 uM compound; for ΔTm at 100 µM: 100 uM compound
T1 construct: p53 Y220C mutant protein (amino acid residues 94-293)
Summary of the method: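 Recombinant p53 Y220C core (residues 94-293) at 5 μM was incubated with 10 μM or 100 μM compound for 3 hours at 20 °C in 20 mM HEPES pH7.4, 100 mM NaCl, 0.01% Pluronic F-127, 1% DMSO with 400-fold diluted Sypro Orange. Melting was followed from 30 °C to 50 °C at 0.03 °C/second, and TM came from a Boltzmann two-state fit.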

[2] = tested on: NUGC3 p53 Y220C; experiment: Cell Proliferation Assay (CellTiter-Glo, CTG), NUGC3 p53 Y220C; format: cell-based; details: Homo sapiens, NUGC-3, 120 h, 5 days, CellTiter-Glo
Summary of the method: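 NClH1299 lines stably transduced with Tet-inducible p53 Y220C or R273H, plus NUGC3, were treated with compound for 5 days at 250-500 cells/well. IC50 derived from CellTiter-Glo luminescent signal after 10 min room-temperature incubation.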

[3] = target: p53 Y220C (Homo sapiens, UniProt P04637, Y220C); experiment: Luciferase Reporter Assay (Luc), p53 response element, NClH1299 cells with inducible p53 Y220C; format: cell-based; details: luciferase reporter, NClH1299 inducible p53 Y220C, 6 hour; for AC50: read-out: Luc P53 Y220C AC50
Summary of the method: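 Luminescence readout (One-Glo, 5 min shaking at RT, read at once) after 6 h compound exposure; cells pre-induced 24 h with 0.5 ug/mL doxycycline, 5,000/well.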

[4] = tested on: H1299 p53 R273H; experiment: Cell Proliferation Assay (CellTiter-Glo, CTG), H1299 p53 R273H (NClH1299-inducible p53 R273H); format: cell-based; details: Homo sapiens, NCI-H1299, 120 h, 5 days, CellTiter-Glo
Summary of the method: (§1)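 Cells seeded at 250-500 per well and exposed to compound for 5 days. Viability read by CellTiter-Glo luminescence after 10 min at room temperature; IC50 calculated. H1299 lines carry Tet-One inducible p53 mutant constructs introduced by lentiviral transduction.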

[5] = target: T1, p53 Y220C mutant protein (amino acid residues 94-293); experiment: Surface Plasmon Resonance (SPR) assay, Kd_kinetic; format: binding; details: SPR, p53 Y220C, read-out: SPR P53 Y220C KD kinetic
Summary of the method: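 Binding measured by SPR on a Biacore 8K in running buffer of 50 mM Tris pH 7.5, 100 mM NaCl, 1 mM DTT, 0.01% Brij35, 0.05% Tween-20, 1% DMSO.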

[6] = tested on: H1299 p53 Y220C; experiment: Cell Proliferation Assay (CellTiter-Glo, CTG), H1299 p53 Y220C (NClH1299-inducible p53 Y220C); format: cell-based; details: Homo sapiens, NCI-H1299, 120 h, 5 days, CellTiter-Glo
Summary of the method: as §1

[7] = p53 Y220C, read-out: TSA P53 Y220C dTM
[8] = thermal shift, read-out: TSA P53 Y220C dTM (10 uM)
[9] = thermal shift, read-out: TSA P53 Y220C dTM (100 uM)
[10] = 10 uM tool compound as positive control

Row | SMILES | ΔTm at 10 µM [1, 7] [°C] | ΔTm at 100 µM [1, 7] [°C] | IC50 ([2]; NUGC3 cells) [nM] | AC50 ([3]; AC50) [nM] | Emax ([3]; Emax) [%] | IC50 ([4]; NClH1299-inducible p53 R273H cells) [nM] | Kd [5] [nM] | IC50 ([6]; NClH1299-inducible p53 Y220C cells) [nM] | ΔTm at 10 µM [1, 8] [°C] | ΔTm at 100 µM [1, 9] [°C] | IC50 ([2]; NUGC3 p53 Y220C) [nM] | Emax [3, 10] [%] | AC50 [3] [nM] | IC50 ([4]; H1299 p53 R273H) [nM] | Kd ([5]; kinetic KD) [nM] | IC50 ([6]; H1299 p53 Y220C) [nM]
1 | CNC(=O)c1ccc(NCC#Cc2nc3c(N[C@H]4CCN(C)C4)cccn3c2SC(F)(F)F)c(OC)c1 [Example 243] | 5 to 10 | ≥ 10 | 750 to 1500 | 1500 to 3000 | 70 to 80 | ≥ 10000 | < 10 | 750 to 1500 | – | – | – | – | – | – | – | –
2 | CNC(=O)c1ccc(NCC#Cc2nc3c(N[C@@H]4CCNC(=O)C4)cccn3c2SC(F)(F)F)c(OC)c1 [Example 175] | – | – | – | – | – | – | – | – | 5 to 10 | 5 to 10 | > 3000 | < 70 | > 3000 | ≥ 10000 | 10 to 100 | > 3000
3 | CNC(=O)c1ccc(NCC#Cc2nc3c(N[C@@H]4CCN(C)C[C@@H]4F)cccn3c2CC(F)(F)F)c(Cl)c1 [Example 55, 3-chloro-4-{[3-(8-{[(3S,4R)-3-fluoro-1-methylpiperidin-4-yl]amino}-3-(2,2,2-trifluoroethyl)imidazo[1,2-a]pyridin-2-yl)prop-2-yn-1-yl]amino}-N-methylbenzamide] | – | – | – | – | – | – | – | – | – | ≥ 10 | 750 to 1500 | > 90 | 750 to 1500 | ≥ 10000 | 10 to 100 | 750 to 1500
4 | CNC(=O)c1ccc(NCC#Cc2nn3c(N[C@@H]4CCN(C)C[C@@H]4F)nccc3c2SC(F)F)c(OC)c1 [Example 215] | – | – | – | – | – | – | – | – | ≥ 10 | – | < 750 | > 90 | < 750 | ≥ 10000 | < 10 | < 750
5 | CNC(=O)c1ccc(OC)c(NCC#Cc2nc3c(N[C@@H]4CCN(C)C[C@@H]4F)cccn3c2SC(F)F)c1 [Example 167] | – | – | – | – | – | – | – | – | ≥ 10 | ≥ 10 | < 750 | 80 to 90 | < 750 | < 5000 | < 10 | < 750
6 | CNC(=O)c1cc(NCC#Cc2nc3c(N[C@@H]4CCN(C)C[C@@H]4F)cccn3c2SC(F)(F)F)c(OC)cc1F [Example 170] | – | – | – | – | – | – | – | – | ≥ 10 | ≥ 10 | < 750 | 80 to 90 | < 750 | ≥ 10000 | < 10 | < 750
7 | COc1cc(S(C)(=O)=O)ccc1NCC#Cc1nc2c(N[C@H]3CCN(C)C[C@H]3F)cccn2c1CC(F)(F)F [Example 6, (3R,4S)-3-fluoro-N-(2-{3-[(4-methanesulfonyl-2-methoxyphenyl)amino]prop-1-yn-1-yl}-3-(2,2,2-trifluoroethyl)imidazo[1,2-a]pyridin-8-yl)-1-methylpiperidin-4-amine] | – | – | – | – | – | – | – | – | – | ≥ 10 | 1500 to 3000 | 70 to 80 | 1500 to 3000 | ≥ 10000 | 10 to 100 | 1500 to 3000
8 | CCS(=O)(=O)c1ccc(NCC#Cc2nc3c(N[C@@H]4CCNC[C@@H]4F)cccn3c2SC(F)(F)F)c(OC)c1 [Example 80, (3S,4R)—N-[2-(3-{[4-(ethanesulfonyl)-2-methoxyphenyl]amino}prop-1-yn-1-yl)-3-[(trifluoromethyl)sulfanyl]imidazo[1,2-a]pyridin-8-yl]-3-fluoropiperidin-4-amine] | – | – | – | – | – | – | – | – | – | ≥ 10 | < 750 | 80 to 90 | < 750 | 5000 to 8000 | < 10 | < 750
9 | CCNC(=O)c1ccc(NCC#Cc2nc3c(N[C@@H]4CCN(C)C[C@@H]4F)cccn3c2SC(F)(F)F)c(OC)c1 [Example 85, N-ethyl-4-{[3-(8-{[(3S,4R)-3-fluoro-1-methylpiperidin-4-yl]amino}-3-[(trifluoromethyl)sulfanyl]imidazo[1,2-a]pyridin-2-yl)prop-2-yn-1-yl]amino}-3-methoxybenzamide] | – | – | – | – | – | – | – | – | – | ≥ 10 | < 750 | 80 to 90 | < 750 | 5000 to 8000 | < 10 | < 750
10 | COc1cc(S(C)(=O)=O)ccc1NCC#Cc1nc2c(NC3CCN(C(C)C)CC3)cccn2c1CC(F)(F)F [Example 9, 1-isopropyl-N-(2-{3-[(4-methanesulfonyl-2-methoxyphenyl)amino]prop-1-yn-1-yl}-3-(2,2,2-trifluoroethyl)imidazo[1,2-a]pyridin-8-yl)piperidin-4-amine] | – | – | – | – | – | – | – | – | – | ≥ 10 | 1500 to 3000 | 70 to 80 | 1500 to 3000 | 5000 to 8000 | 10 to 100 | 1500 to 3000
11 | CNC(=O)c1ccc(NCC#Cc2nc3c(N[C@@H]4CCC(=O)N(C)C4)cccn3c2SC(F)(F)F)c(OC)c1 [Example 188] | – | – | – | – | – | – | – | – | 5 to 10 | ≥ 10 | 750 to 1500 | 80 to 90 | 750 to 1500 | ≥ 10000 | 10 to 100 | 750 to 1500
12 | CCS(=O)(=O)c1ccc(NCC#Cc2nc3c(N[C@@H]4CCN(C)C[C@@H]4F)cccn3c2CC(F)(F)F)c(OC)c1 [Example 66, (3S,4R)—N-[2-(3-{[4-(ethanesulfonyl)-2-methoxyphenyl]amino}prop-1-yn-1-yl)-3-(2,2,2-trifluoroethyl)imidazo[1,2-a]pyridin-8-yl]-3-fluoro-1-methylpiperidin-4-amine] | – | – | – | – | – | – | – | – | – | ≥ 10 | < 750 | 70 to 80 | < 750 | 5000 to 8000 | < 10 | < 750
13 | COc1cc(C(=O)N(C)C)ccc1NCC#Cc1nc2c(N[C@@H]3CCN(C)C[C@@H]3F)cccn2c1SC(F)(F)F [Example 88, 4-{[3-(8-{[(3S,4R)-3-fluoro-1-methylpiperidin-4-yl]amino}-3-[(trifluoromethyl)sulfanyl]imidazo[1,2-a]pyridin-2-yl)prop-2-yn-1-yl]amino}-3-methoxy-N, N-dimethylbenzamide] | – | – | – | – | – | – | – | – | ≥ 10 | ≥ 10 | < 750 | 80 to 90 | < 750 | 8000 to 10000 | < 10 | < 750
